{"source": "paper PMC3195835", "about": "(International journal of pharmaceutics, 2011)", "key": {"P-gp [1]": {"molecular_target": "T1, P-gp (Homo sapiens, UniProt P08183)", "T1 sequence (P08183 whole entry)": "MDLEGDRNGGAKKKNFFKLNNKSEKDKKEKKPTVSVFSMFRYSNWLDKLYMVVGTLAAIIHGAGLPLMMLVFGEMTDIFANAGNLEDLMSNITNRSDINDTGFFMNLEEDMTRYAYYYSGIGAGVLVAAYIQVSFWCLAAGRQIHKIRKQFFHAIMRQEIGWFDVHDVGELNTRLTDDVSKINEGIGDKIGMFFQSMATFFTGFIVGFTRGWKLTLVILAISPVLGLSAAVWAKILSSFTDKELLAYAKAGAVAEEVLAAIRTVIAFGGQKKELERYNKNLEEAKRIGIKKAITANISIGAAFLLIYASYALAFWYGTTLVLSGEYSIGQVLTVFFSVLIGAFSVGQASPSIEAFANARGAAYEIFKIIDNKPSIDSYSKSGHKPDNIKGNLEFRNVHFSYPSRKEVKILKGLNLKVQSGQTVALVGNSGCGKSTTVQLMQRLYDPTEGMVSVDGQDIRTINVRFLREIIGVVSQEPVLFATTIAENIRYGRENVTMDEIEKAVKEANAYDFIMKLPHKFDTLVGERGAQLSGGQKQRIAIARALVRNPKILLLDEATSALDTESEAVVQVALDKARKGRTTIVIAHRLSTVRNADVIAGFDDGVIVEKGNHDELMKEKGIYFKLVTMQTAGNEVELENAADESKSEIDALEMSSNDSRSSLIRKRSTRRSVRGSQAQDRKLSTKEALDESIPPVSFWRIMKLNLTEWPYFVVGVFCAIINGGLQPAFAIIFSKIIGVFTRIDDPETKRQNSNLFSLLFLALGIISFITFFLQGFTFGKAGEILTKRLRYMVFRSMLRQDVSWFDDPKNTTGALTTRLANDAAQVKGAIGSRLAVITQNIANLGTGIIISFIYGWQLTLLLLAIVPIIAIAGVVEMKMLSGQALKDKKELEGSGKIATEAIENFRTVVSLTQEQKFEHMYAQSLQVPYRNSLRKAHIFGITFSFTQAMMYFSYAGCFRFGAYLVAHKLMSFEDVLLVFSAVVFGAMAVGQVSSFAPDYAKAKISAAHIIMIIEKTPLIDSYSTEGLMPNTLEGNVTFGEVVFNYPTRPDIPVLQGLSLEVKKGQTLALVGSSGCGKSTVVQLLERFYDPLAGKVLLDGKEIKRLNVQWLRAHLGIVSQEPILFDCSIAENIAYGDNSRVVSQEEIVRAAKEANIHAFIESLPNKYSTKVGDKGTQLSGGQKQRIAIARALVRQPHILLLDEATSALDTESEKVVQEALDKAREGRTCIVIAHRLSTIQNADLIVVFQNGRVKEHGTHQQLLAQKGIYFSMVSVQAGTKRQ", "test": "in vitro", "conditions": "MDCK-MDR1"}, "MRP2 [2]": {"molecular_target": "T2, MRP2 (Homo sapiens, UniProt Q92887)", "T2 sequence (Q92887 whole entry)": "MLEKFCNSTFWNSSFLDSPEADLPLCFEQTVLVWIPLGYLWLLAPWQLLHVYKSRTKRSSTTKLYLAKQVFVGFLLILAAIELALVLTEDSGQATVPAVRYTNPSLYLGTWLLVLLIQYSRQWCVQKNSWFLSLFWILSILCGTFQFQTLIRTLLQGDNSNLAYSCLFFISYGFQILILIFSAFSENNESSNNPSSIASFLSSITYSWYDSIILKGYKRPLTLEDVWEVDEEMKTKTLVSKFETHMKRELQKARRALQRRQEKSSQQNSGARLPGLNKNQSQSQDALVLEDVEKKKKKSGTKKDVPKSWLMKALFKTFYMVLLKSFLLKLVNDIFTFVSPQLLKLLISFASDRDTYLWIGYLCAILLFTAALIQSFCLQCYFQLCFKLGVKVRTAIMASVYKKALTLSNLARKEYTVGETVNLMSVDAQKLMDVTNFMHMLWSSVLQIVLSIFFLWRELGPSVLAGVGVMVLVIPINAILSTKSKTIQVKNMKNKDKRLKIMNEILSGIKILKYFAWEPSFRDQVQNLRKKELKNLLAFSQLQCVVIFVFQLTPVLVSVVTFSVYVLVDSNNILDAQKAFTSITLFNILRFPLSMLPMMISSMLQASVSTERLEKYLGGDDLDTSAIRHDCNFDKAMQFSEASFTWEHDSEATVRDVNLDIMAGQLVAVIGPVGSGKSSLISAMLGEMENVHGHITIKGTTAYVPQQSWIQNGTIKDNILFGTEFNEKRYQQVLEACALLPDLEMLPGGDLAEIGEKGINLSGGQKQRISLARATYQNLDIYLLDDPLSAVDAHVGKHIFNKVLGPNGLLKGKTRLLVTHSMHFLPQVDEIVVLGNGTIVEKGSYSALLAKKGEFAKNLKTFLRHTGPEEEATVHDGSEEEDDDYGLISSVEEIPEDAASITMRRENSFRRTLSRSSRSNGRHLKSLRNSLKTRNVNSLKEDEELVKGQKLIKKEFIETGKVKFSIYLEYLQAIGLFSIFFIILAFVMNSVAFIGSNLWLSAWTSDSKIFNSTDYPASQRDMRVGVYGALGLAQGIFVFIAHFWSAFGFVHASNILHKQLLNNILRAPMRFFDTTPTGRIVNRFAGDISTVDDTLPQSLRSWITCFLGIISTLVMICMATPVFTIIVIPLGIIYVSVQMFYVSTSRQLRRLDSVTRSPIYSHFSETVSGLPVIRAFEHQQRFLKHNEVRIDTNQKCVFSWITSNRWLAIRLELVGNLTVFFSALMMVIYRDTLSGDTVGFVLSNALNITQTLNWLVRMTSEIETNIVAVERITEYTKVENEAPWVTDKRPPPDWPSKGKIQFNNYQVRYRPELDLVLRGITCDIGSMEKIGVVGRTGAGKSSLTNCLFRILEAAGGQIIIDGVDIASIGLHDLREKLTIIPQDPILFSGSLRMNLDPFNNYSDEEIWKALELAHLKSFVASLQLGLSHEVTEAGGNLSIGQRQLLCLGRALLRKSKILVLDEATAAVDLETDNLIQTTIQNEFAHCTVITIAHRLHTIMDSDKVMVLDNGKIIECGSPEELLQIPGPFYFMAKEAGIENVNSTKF", "test": "in vitro"}, "[3]": {"conditions": "ref Allen et al., 2000, Zhanel and Noreddin, 2001, cited from earlier work"}, "MDCKII-MDR1 cells [4]": {"tested_on": "MDCKII-MDR1 cells", "test": "ATP assay in MDCKII-MDR1 cells", "format": "cell-based, canine", "conditions": "150min"}, "MDCKII-MRP2 cells [5]": {"tested_on": "MDCKII-MRP2 cells", "test": "ATP assay in MDCKII-MRP2 cells", "format": "cell-based, canine", "conditions": "150min"}, "MDCKII-MDR1 cells [6]": {"tested_on": "MDCKII-MDR1 cells", "test": "Cell proliferative", "format": "cell-based, canine", "conditions": "150min"}, "MDCKII-MRP2 cells [7]": {"tested_on": "MDCKII-MRP2 cells", "test": "Cell proliferative", "format": "cell-based, canine", "conditions": "150min"}, "LS-180 cells": {"tested_on": "LS-180 cells", "test": "[14C] erythromycin uptake in treated LS-180 cells", "format": "cell-based, human", "conditions": "LS-180 cells treated 72hrs; gemifloxacin 2.5, 5, 7.5μM, rifampin 10μM"}, "P-gp [8]": {"molecular_target": "T1, P-gp", "conditions": "MDCK-MDR1, 150 min"}, "P-gp [9]": {"molecular_target": "T1, P-gp", "test": "cell-based"}, "MRP2 [10]": {"molecular_target": "T2, MRP2", "test": "cell-based"}, "P-gp [11]": {"molecular_target": "T1, P-gp", "test": "Cellular accumulation of calcein-AM in MDCKII-MDR1 cells", "format": "cell-based", "conditions": "calcein-AM 0.05μM, 15min, quinidine 100μM, gemifloxacin 250μM"}, "[12]": {"conditions": "all concentrations 1μM to 1000μM except 1000μM"}, "[13]": {"conditions": "gemifloxacin 1000μM, data not shown"}, "[14]": {"conditions": "all other concentrations (1μM to below 1000μM)"}}}
{"smiles": "CC[C@H]1OC(=O)[C@H](C)[C@@H](O[C@H]2C[C@@](C)(OC)[C@@H](O)[C@H](C)O2)[C@H](C)[C@@H](O[C@@H]2O[C@H](C)C[C@H](N(C)C)[C@H]2O)[C@](C)(O)C[C@@H](C)C(=O)[C@H](C)[C@@H](O)[C@]1(C)O", "note": "[[^14C] erythromycin, erythromycin]", "values": [{"measurement": "Papp A→B at 150 min", "setting": "P-gp [1]", "value": "2.96 ± 0.37", "unit": "×10⁻⁶ cm/s"}, {"measurement": "Papp B→A at 150 min", "setting": "P-gp [1]", "value": "10.6 ± 0.86", "unit": "×10⁻⁶ cm/s"}, {"measurement": "efflux ratio at 150 min", "setting": "P-gp [1]", "value": 3.56}, {"measurement": "Papp A→B at 150 min", "setting": "MRP2 [2]", "value": "3.76 ± 1.37", "unit": "×10⁻⁶ cm/s"}, {"measurement": "Papp B→A at 150 min", "setting": "MRP2 [2]", "value": "18.5 ± 1.94", "unit": "×10⁻⁶ cm/s"}, {"measurement": "efflux ratio at 150 min", "setting": "MRP2 [2]", "value": 4.93}]}
{"smiles": "COc1c(N2CCNC(C)C2)c(F)cc2c(=O)c(C(=O)O)cn(C3CC3)c12", "note": "(stereo not drawn) [gatifloxacin]", "values": [{"measurement": "Absolute (oral) bioavailability", "setting": "[3]", "value": 96, "unit": "%"}]}
{"smiles": "CO/N=C1\\CN(c2nc3c(cc2F)c(=O)c(C(=O)O)cn3C2CC2)CC1CN", "note": "(stereo not drawn) [gemifloxacin]", "values": [{"measurement": "Effect on ATP levels compared to control", "setting": "MDCKII-MDR1 cells [4]; [12]", "value": "did not significantly alter ATP levels"}, {"measurement": "Increase in ATP level", "setting": "MDCKII-MDR1 cells [4]; [13]", "value": "~15", "unit": "%"}, {"measurement": "Effect on ATP levels compared to control", "setting": "MDCKII-MRP2 cells [5]; [12]", "value": "did not significantly alter ATP levels"}, {"measurement": "Increase in ATP level", "setting": "MDCKII-MRP2 cells [5]; [13]", "value": "~10", "unit": "%"}, {"measurement": "Cytotoxicity (MTS)", "setting": "MDCKII-MDR1 cells [6]; [14]", "value": "non-cytotoxic"}, {"measurement": "Decrease in cell viability (MTS)", "setting": "MDCKII-MDR1 cells [6]; [13]", "value": "~25", "unit": "%"}, {"measurement": "Cytotoxicity (MTS)", "setting": "MDCKII-MRP2 cells [7]; [14]", "value": "non-cytotoxic"}, {"measurement": "Decrease in cell viability (MTS)", "setting": "MDCKII-MRP2 cells [7]; [13]", "value": "~20", "unit": "%"}, {"measurement": "Decrease in cellular accumulation of [14C] erythromycin post treatment", "setting": "LS-180 cells", "value": "~20", "unit": "%"}, {"measurement": "Apparent permeability of [14C] erythromycin, AP-BL, in presence of test compound", "setting": "P-gp [8]", "value": "5.24 ± 0.52 × 10-6 cm/sec"}, {"measurement": "Apparent permeability of [14C] erythromycin, BL-AP, in presence of test compound", "setting": "P-gp [8]", "value": "7.38 ± 0.72 × 10-6 cm/sec"}, {"measurement": "Time to peak concentration", "setting": "[3]; oral administration", "value": "0.5 to 2", "unit": "h"}, {"measurement": "Absolute (oral) bioavailability", "setting": "[3]", "value": 71, "unit": "%"}, {"measurement": "IC50", "setting": "P-gp [9]", "value": "123 ± 2", "unit": "µM"}, {"measurement": "IC50", "setting": "MRP2 [10]", "value": "16 ± 2", "unit": "µM"}]}
{"smiles": "C=C[C@H]1C[N@@]2CC[C@H]1C[C@@H]2[C@@H](O)c1ccnc2ccc(OC)cc12", "note": "[quinidine]", "values": [{"measurement": "Increase in intracellular calcein fluorescence", "setting": "P-gp [11]", "value": "doubled"}]}
{"smiles": "CO[C@H]1/C=C/O[C@@]2(C)Oc3c(C)c(O)c4c(O)c(c(/C=N/N5CCN(C)CC5)c(O)c4c3C2=O)NC(=O)/C(C)=C\\C=C\\[C@H](C)[C@H](O)[C@@H](C)[C@@H](O)[C@@H](C)[C@H](OC(C)=O)[C@@H]1C", "note": "[rifampin]", "values": [{"measurement": "Decrease in cellular accumulation of [14C] erythromycin post treatment", "setting": "LS-180 cells", "value": "~20", "unit": "%"}]}
